Converted amounts (≈) assume the structure as drawn.
Test: physchem
Details: water
Description: Most native lipids have long fatty acyl side chains rendering them insoluble and difficult to work with in an aqueous environment.

Compound: CCCCCCCC(=O)OC[C@H](COP(=O)(O)O)OC(=O)CCCCCCC [C8-PA]
- solubility: 50 mM (≈ 21.2 mg/mL)

— patent US8669065B1, “Methods for identifying molecules that modulate lipid binding sites of ion channels” (priority 2011, dated 2014)
